Laboratory results published in patent US20260209152A1, “Substituted Hydroxystilbene Compounds and Derivatives, Synthesis and Uses Thereof” (Kynan Duke IP, LLC, priority 2019, published 2026).
Like-named read-outs stand apart in the source and are kept apart here.

Columns and labels:
[1] = tested on: IL-8 release from IL-17A and TNFα-induced primary human keratinocytes; assay: Keratinocyte IL-8 release (assay number 1250); assay type: cell-based; details: for EC50 / Emax: Homo sapiens, Keratinocyte; for Emax: read-out: maximum efficacy, IL-8 release; for Max Eff.: IL-8 (1250): highest effect as percentage of control maximum effect
Procedure: Inhibition of IL-8 release from IL-17A and TNFα-induced primary human keratinocytes LEO Pharma Open Innovation assay number 1250 openinnovation.leo-pharma.com
The inflammatory skin disease psoriasis is characterized by cytokines IL-17A and TNFα. In the present assay, primary human keratinocytes are stimulated with a mixture of these cytokines, and the release of IL-8 (also called CXCL8) is measured in the culture supernatant by proximity homogenous time-resolved fluorescence (HTRF).
• Detach the cells as described above. • Resuspend pellet in 10 ml EpiLife Medium with HKGS Kit but without hydrocortisone • Filter the cells though a 37 µm strainer. • Count cells using a cell counter. • Seed Human Epidermal Keratinocytes, adult (HEKa) cells in 384-well view plates 3500 c/w/40 μL. Use cell media with supplement but without hydrocortisone as assay medium. • Place the plates with lids on in a humidity chamber with lid (24.5×24.5 cm box added H2O in the bottom). • Incubate plates over night at 37° C., 5% CO2/95% air.
• Prepare compound-containing source plate, i.e. titrations in DMSO to be transferred to the assay plate. • Empty the assay plate, and re-add 25 μL assay medium. • Add 75 nL compounds and controls from the source plate to the assay plate (with cells). • Add 25 μL assay medium and incubate for 2 hours. • Add 25 μL stimulation mix in assay medium (recombinant human interleukin 17A and Tumor necrosis factor-alpha) to give a final concentration of 10 ng/mL of both cytokines. • Incubate plates at 37° C., 5% CO2/95% air for 3 days.
• Remove plates from incubation and equilibrate to room temperature for 30 minutes. • Transfer 2 μL supernatant to white proxi 384-well plates for IL-8 detection. • Add 2 μL assay medium • Prepare IL-8 HTRF mix (according to manufactory protocol) and add 2 μL pr well. • Seal and incubate for 3 hours and read fluorescence in a plate reader.
IL-8 concentration in the supernatant is measured using homogeneous time-resolved fluorescence resonance (TR-FRET). The assay is quantified by measuring fluorescence at 665 nm (proportional to IL8 concentration) and 620 nm (control). A ratio 665/620*1000 is calculated as a representation of the amount of IL-8 in the supernatant.

[2] = Cell viability in PBMC IL-17 assay (assay number 1322); assay type: cell-based, human; details: human
Procedure: (§1) The inflammatory skin disease psoriasis is characterized by cytokines IL-17A and TNFα. In the present assay, human peripheral blood mononuclear cells (PBMC) are stimulated with beads coated with antibodies against CD3 and CD28 to activate the T-cell receptor, and stimulated with IL-23 to promote T-helper17 activity. The cells are incubated for three days, then the secreted level of IL-17A is measured in the culture supernatant using AlphaLISA and the amount of living cells is measured by addition of resazurin (PrestoBlue®) to identify compounds that inhibit cell proliferation or viability. […] Compounds which inhibit IL-17A secretion may be expected to have efficacy in psoriasis.
(§2) • IL-17A concentration in the supernatants is measured using an alphaLISA kit (Perkin Elmer, cat no. AL219F). • Pretest to find optima dilution of samples: Test 5 μL supernatant from control wells and run IL-17A alphaLISA assay with only 2 hours of incubation. • When data are available, remove assay plates from incubation and equilibrate to room temperature for 30 minutes. • Transfer 5 μL or corrected amounts of supernatant to a 384-proxy plate • Add 5 μL alphaLISA acceptor beads. • Incubate 1 hour at room temperature • Add 5 μL donor beads • Incubate overnight at room temperature protected from light. • Add 7 μL PrestoBlue reagent (resazurin)/well to the assay plate and incubated for 2-4 hours at 37° C./5% CO2. The fluorescence in the wells is measured (Ex615/Em 535).
(§3) The level of living cells in the wells is measured by the addition of PrestoBlue® and the conversion of Resazurin to Resorufin (fluorescent) in living cells is measured.
(§4) The effect of the test compounds on viability/proliferation is normalized to the PrestoBlue signal in the negative control wells treated with a toxic compound, Terfenadine.

human PBMC = assay: as above; assay type: cell-based; details: Homo sapiens
Procedure: as §1, §2, §3, §4

[3] = Cell viability in T-cell IL-2 & IL-4 assay (assay number 1299); assay type: cell-based, human; details: human, human CD4-positive T-cells
Procedure: (§5) Then the level of secreted of IL-4 is measured in the culture supernatant using electrochemiluminescence (MSD kits, Meso Scale Discovery), IL-2 is measured by proximity homogenous time-resolved fluorescence (HTRF) and the amount of living cells is measured by addition of resazurin (PrestoBlue®) to allow identifying compounds that inhibit T-cell proliferation or viability.
(§6) • Remove plates from incubation and equilibrate to room temperature for 30 minutes. • IL-4 concentration in 10 μL supernatant is measured using an MSD IL-4 384-plate kit (Custom made) according to manufacturer protocol. • IL-2 concentrations in the supernatant is measured by an IL-2 HTRF kit, CisBio, cat. No 62HIL02PEH. • Add 4 μL medium to white proxi 384-well plates • Add 1 μL supernatant. • Add 4 μL mHTRF mix (each diluted 1:300 in ⅔ reconstitution buffer and ⅓ assay medium). • Spin the plates for 1 minute at 170 g • Seal and incubate overnight and read fluorescence in a plate reader • The amount of viable cells is measured by PrestoBlue® reagent • Add 15 μL diluted PrestoBlue® reagent (resazurin) corresponding to 2.5 μL Prestoblue/well to the assay plate. • Incubate overnight at 37° C./5% CO2. The fluorescence in the wells is measured (Ex615/Em 535).
as §3, §4

[4] = tested on: human CD4-positive T-cells; assay: as above; assay type: cell-based; details: Homo sapiens, CD4 positive
Procedure: as §5, §6, §3, §4

[5] = inhibition of IL-8 release, IL-17A and TNFα-induced keratinocytes, read-out: Abs EC50: IL-8 (1250)
[6] = read-out: EC50, inhibition of IL-8 release
[7] = cell viability in PBMC IL-17 assay, read-out: Abs EC50: Viab (1322)
[8] = T-cell IL-2 & IL-4 assay, read-out: maximum reduction of cell viability
[9] = T-cell IL-2 & IL-4 assay, read-out: EC50, cell viability
[10] = cell viability in T-cell IL-2 & IL-4 assay, read-out: Abs EC50: Viab (1299)
[11] = maximum reduction of cell viability in PBMC IL-17 assay, read-out: Max Eff.: Viab (1322)
[12] = maximum reduction of cell viability in T-cell IL-2 & IL-4 assay, read-out: Max Eff.: Viab (1299)

SMILES | reduction of IL-8 release, in words [1] | EC50 [1, 5] [nM] | EC50 [1, 6] [nM] | Emax [1] [%] | Max Eff.: IL-8 (1250) [1] [%] | cytotoxicity at 3 days ([2]; PBMC IL-17 assay, read-out: maximum reduction of cell viability) [%] | EC50 (human PBMC; PBMC IL-17 assay, read-out: EC50, cell viability) [nM] | EC50 (human PBMC; [7]) [nM] | cytotoxicity [3, 8] [%] | EC50 [4, 9] [nM] | EC50 [4, 10] [nM] | cytotoxicity at 3 days [2, 11] [%] | cytotoxicity [3, 12] [%]
CCOc1cc(O)cc(/C=C/c2ccc(NC=O)c(OC)c2)c1CC=C(C)C [Compound 28, (E)-N-(4-(3-Ethoxy-5-hydroxy-2-(3-methylbut-2-en-1-yl)styryl)-2-methoxyphenyl)formamide] | medium potency reduction of IL-8 release | 44 | 44 | 85 | 85 | 54 | 659 | 659 | 60 | 2360 | 2360 |  | 
CCOc1cc(O)cc(/C=C/c2ccc(NC(=O)C(=O)O)c(OC)c2)c1CC=C(C)C [Compound 35, (E)-2-((4-(3-Ethoxy-5-hydroxy-2-(3-methylbut-2-en-1-yl)styryl)-2-methoxyphenyl)amino)-2-oxoacetic acid] |  | 2950 |  |  | 77 |  |  | 5000 |  |  | 5000 | 18 | 7
COc1cc(/C=C/c2cc(O)cc(OC)c2CC=C(C)C)ccc1NC=O [Compound 27, (E)-N-(4-(5-hydroxy-3-methoxy-2-(3-methylbut-2-en-1-yl)styryl)-2-methoxyphenyl)formamide] |  | 46 | 46 | 75 | 75 |  |  | 5000 | 52 | 4350 | 4350 | 52 | 
CCOc1cc(O)cc(/C=C/c2ccc(O)c(O)c2)c1CC=C(C)C [Compound 20, (E)-4-(3-Ethoxy-5-hydroxy-2-(3-methylbut-2-en-1-yl)styryl)benzene-1,2-diol] |  | 321 |  |  | 93 |  |  | 5000 |  |  | 5000 | 47 | 15
COc1cc(/C=C/c2cc(O)cc(OC)c2CC=C(C)C)ccc1O [Compound 1, (E)-3-(4-hydroxy-3-methoxystyryl)-5-methoxy-4-(3-methylbut-2-en-1-yl)phenol] |  | 80 |  |  | 94 |  |  | 5000 |  |  | 5000 | 50 | 35
COc1cc(/C=C/c2cc(O)cc(OC)c2CC=C(C)C)ccc1NC(=O)CN [Compound 31, (E)-2-amino-N-(4-(5-hydroxy-3-methoxy-2-(3-methylbut-2-en-1-yl)styryl)-2-methoxyphenyl)acetamide] |  | 364 |  |  | 105 |  |  | 5000 |  |  | 5000 | 32 | 19
CCOc1cc(O)cc(/C=C/c2ccc(O)c(OC)c2)c1CC=C(C)C [Compound 8, (E)-3-Ethoxy-5-(4-hydroxy-3-methoxystyryl)-4-(3-methylbut-2-en-1-yl)phenol] |  | 37 |  |  | 107 |  |  | 582 |  |  | 5000 | 57 | 46
